Assay results published in patent publication US10357481B2 (MERCK SHARP & DOHME CORP., priority 2015, dated 2019).

Target: T1, human PDE2A1 (Homo sapiens, UniProt O00408)
T1 construct: GST; purchased BPS Bioscience (San Diego, Calif.) 60020; host or cells: insect cells
Experiment: IMAP FP PDE selectivity panel, human PDE2A1
Assay type: biochemical
Settings: Lab B; read-out: Human PDE2 Ki (nM) Lab B
Summary of the method: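 Human PDE2A1 tested alongside PDE1–11 by IMAP fluorescence polarization at room temperature. Substrate was 50 nM FAM-cAMP plus 1000 nM cGMP, buffer pH 7.2 with MgCl2 and DTT, enzyme set for 20% conversion. Ten 3-fold compound dilutions; 60 min reaction, then IMAP binding solution, 1 h, parallel/perpendicular fluorescence read.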

T1 sequence (O00408 1-920 isoform O00408-2): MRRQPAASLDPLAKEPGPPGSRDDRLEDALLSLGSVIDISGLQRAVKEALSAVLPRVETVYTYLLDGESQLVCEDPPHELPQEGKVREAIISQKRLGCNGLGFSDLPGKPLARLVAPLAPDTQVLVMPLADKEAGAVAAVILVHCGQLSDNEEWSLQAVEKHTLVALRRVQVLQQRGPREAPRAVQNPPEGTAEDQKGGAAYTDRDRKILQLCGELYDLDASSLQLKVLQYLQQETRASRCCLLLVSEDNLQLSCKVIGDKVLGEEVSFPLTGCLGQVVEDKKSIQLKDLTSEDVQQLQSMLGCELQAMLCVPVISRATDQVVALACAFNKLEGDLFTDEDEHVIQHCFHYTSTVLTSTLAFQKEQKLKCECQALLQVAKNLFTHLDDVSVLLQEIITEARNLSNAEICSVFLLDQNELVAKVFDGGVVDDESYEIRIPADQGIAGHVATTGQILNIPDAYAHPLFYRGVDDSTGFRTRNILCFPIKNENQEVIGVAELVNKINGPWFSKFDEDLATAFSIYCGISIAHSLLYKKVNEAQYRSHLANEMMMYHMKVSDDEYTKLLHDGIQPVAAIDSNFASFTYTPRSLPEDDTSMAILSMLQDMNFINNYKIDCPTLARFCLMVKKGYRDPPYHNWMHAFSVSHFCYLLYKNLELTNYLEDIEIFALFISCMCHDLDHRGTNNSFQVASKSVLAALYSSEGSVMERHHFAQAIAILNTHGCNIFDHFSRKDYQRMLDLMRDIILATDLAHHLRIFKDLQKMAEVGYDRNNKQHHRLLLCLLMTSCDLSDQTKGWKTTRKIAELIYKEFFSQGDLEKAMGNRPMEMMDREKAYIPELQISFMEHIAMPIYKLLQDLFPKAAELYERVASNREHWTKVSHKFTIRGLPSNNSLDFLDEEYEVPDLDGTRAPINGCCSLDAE

| SMILES | Ki |
| --- | --- |
| CC(C)(O)C(Nc1cc(C(F)F)nc2ncnn12)c1ccc(OC(F)(F)F)c(F)c1 (single isomer, unassigned) [Example 188, (1R or S)-{[5-(Difluoromethyl) [1,2,4]triazolo [1,5-a]pyrimidin-7-yl]amino}-1-[3-fluoro-4-(trifluoromethoxy)phenyl]-2-methylpropan-2-ol] | > 2960 nM |
| CC(C)(O)C(Nc1cc(C(F)F)nc2ncnn12)c1ccc(OC(F)F)c(F)c1 (single isomer, unassigned) [Example 189, (1S or R)-[4-(Difluoromethoxy)-3-fluorophenyl]-1-{[5-(difluoromethyl) [1,2,4]triazolo [1,5-a]pyrimidin-7-yl]amino}-2-methylpropan-2-ol] | 17 nM |
| CC(C)(O)C(Nc1cc(C(F)F)nc2ncnn12)c1ccc(OC(F)F)c(F)c1 (single isomer, unassigned) [Example 190, (1R or S)-[4-(Difluoromethoxy)-3-fluorophenyl]-1-{[5-(difluoromethyl) [1,2,4]triazolo [1,5-a]pyrimidin-7-yl]amino}-2-methylpropan-2-ol] | > 2960 nM |
| COCC(Nc1cc(C)nc2ncnn12)c1ccc(C(F)(F)F)c(F)c1 (single isomer, unassigned) [Example 209, (R)- or (S)-N-(1-(3-Fluoro-4-(trifluoromethyl)phenyl)-2-methoxyethyl)-5-methyl-[1,2,4]triazolo [1,5-a]pyrimidin-7-amine] | > 2960 nM |
| COCC(Nc1cc(C)nc2ncnn12)c1ccc(C(F)(F)F)c(F)c1 (single isomer, unassigned) [Example 210, (S)- or (R)-N-(1-(3-Fluoro-4-(trifluoromethyl)phenyl)-2-methoxyethyl)-5-methyl-[1,2,4]triazolo [1,5-a]pyrimidin-7-amine] | 583 nM |
| Cc1cc(NC(c2ccc(C(F)(F)F)cn2)C(C)C)n2ncnc2n1 (single isomer, unassigned) [Example 211, (R)- or (S)-5-Methyl-N-(2-methyl-1-(5-(trifluoromethyl)pyridin-2-yl)propyl)-[1,2,4] triazolo[1,5-a] pyrimidin-7-amine] | ~2480 nM |
| Cc1cc(NC(c2ccc(C(F)(F)F)cn2)C(C)C)n2ncnc2n1 (single isomer, unassigned) [Example 212, (S)- or (R)-5-Methyl-N-(2-methyl-1-(5-(trifluoromethyl)pyridin-2-yl)propyl)-[1,2,4]triazolo [1,5-a]pyrimidin-7-amine] | 310 nM |
| CC(C)(O)C(Nc1cc(C(F)(F)F)nc2ncnn12)c1ccc(C(F)(F)F)c(F)c1 (single isomer, unassigned) [Example 213, (S)- or (R)-1-(3-Fluoro-4-(trifluoromethyl)phenyl)-2-methyl-1-(5-(trifluoromethyl)-[1,2,4]triazolo [1,5-a]pyrimidin-7-ylamino)propan-2-ol] | > 2960 nM |
| CC(C)(O)C(Nc1cc(C(F)(F)F)nc2ncnn12)c1ccc(C(F)(F)F)c(F)c1 (single isomer, unassigned) [Example 214, (S)- or (R)-1-(3-Fluoro-4-(trifluoromethyl)phenyl)-2-methyl-1-(5-(trifluoromethyl)-[1,2,4]triazolo [1,5-a]pyrimidin-7-ylamino)propan-2-ol] | 25 nM |
| CCC(O)(CC)C(Nc1cc(C)nc2ncnn12)c1ccc(C(F)(F)F)c(F)c1 (single isomer, unassigned) [Example 215, (R)- or (S)-3-((3-Fluoro-4-(trifluoromethyl)phenyl)(5-methyl-[1,2,4]triazolo [1,5-a]pyrimidin-7-ylamino)methyl) pentan-3-ol] | > 2960 nM |
| CCC(O)(CC)C(Nc1cc(C)nc2ncnn12)c1ccc(C(F)(F)F)c(F)c1 (single isomer, unassigned) [Example 216, (S)- or (R)-3-((3-Fluoro-4-(trifluoromethyl)phenyl)(5-methyl-[1,2,4]triazolo [1,5-a]pyrimidin-7-ylamino)methyl) pentan-3-ol] | 134 nM |
| COCC(Nc1cc(C(F)(F)F)nc2ncnn12)c1ccc(C(F)(F)F)c(F)c1 (single isomer, unassigned) [Example 217, (R)- or (S)-N-(1-(3-Fluoro-4-(trifluoromethyl)phenyl)-2-methoxyethyl)-5-(trifluoromethyl)-[1,2,4]triazolo [1,5-a]pyrimidin-7-amine] | 329 nM |
| COCC(Nc1cc(C(F)(F)F)nc2ncnn12)c1ccc(C(F)(F)F)c(F)c1 (single isomer, unassigned) [Example 218, (S)- or (R)-N-(1-(3-Fluoro-4-(trifluoromethyl)phenyl)-2-methoxyethyl)-5-(trifluoromethyl)-[1,2,4]triazolo [1,5-a]pyrimidin-7-amine] | > 2960 nM |
| CCC(O)(CC)C(Nc1cc(C(F)(F)F)nc2ncnn12)c1ccc(C(F)(F)F)c(F)c1 (single isomer, unassigned) [Example 219, (R)- or (S)-3-((3-Fluoro-4-(trifluoromethyl)phenyl)(5-(trifluoromethyl)-[1,2,4]triazolo [1,5-a]pyrimidin-7-ylamino)methyl) pentan-3-ol] | 252 nM |
| CCC(O)(CC)C(Nc1cc(C(F)(F)F)nc2ncnn12)c1ccc(C(F)(F)F)c(F)c1 (single isomer, unassigned) [Example 220, (S)- or (R)-3-((3-Fluoro-4-(trifluoromethyl)phenyl)(5-(trifluoromethyl)-[1,2,4]triazolo [1,5-a]pyrimidin-7-ylamino)methyl) pentan-3-ol] | ~2110 nM |
| CC(C)(O)C(Nc1cc(C(F)(F)F)nc2ncnn12)c1ccc(SC(F)(F)F)cc1 (single isomer, unassigned) [Example 221, (R)- or (S)-2-Methyl-1-(5-(trifluoromethyl)-[1,2,4]triazolo [1,5-a]pyrimidin-7-ylamino)-1-(4-(trifluoromethylthio)phenyl)propan-2-ol] | > 2960 nM |
| CC(C)(O)C(Nc1cc(C(F)(F)F)nc2ncnn12)c1ccc(SC(F)(F)F)cc1 (single isomer, unassigned) [Example 222, (S)- or (R)-2-Methyl-1-(5-(trifluoromethyl)-[1,2,4]triazolo [1,5-a]pyrimidin-7-ylamino)-1-(4-(trifluoromethylthio)phenyl)propan-2-ol] | 4.4 nM |
| CC(C)(O)C(Nc1cc(Cl)nc2ncnn12)c1ccc(C(F)(F)F)c(F)c1 (single isomer, unassigned) [Example 223, (R)- or (S)-1-(5-Chloro-[1,2,4]triazolo [1,5-a]pyrimidin-7-ylamino)-1-(3-fluoro-4-(trifluoromethyl)phenyl)-2-methylpropan-2-ol] | 1.1 nM |
| CC(C)(O)C(Nc1cc(Cl)nc2ncnn12)c1ccc(C(F)(F)F)c(F)c1 (single isomer, unassigned) [Example 224, (S)- or (R)-1-(5-Chloro-[1,2,4]triazolo [1,5-a]pyrimidin-7-ylamino)-1-(3-fluoro-4-(trifluoromethyl)phenyl)-2-methylpropan-2-ol] | 612 nM |
| Cc1cc(NC(c2ccc(C(F)(F)F)nc2)C(C)(C)O)n2ncnc2n1 (single isomer, unassigned) [Example 225, (R)- or (S)-2-Methyl-1-(5-methyl-[1,2,4]triazolo [1,5-a]pyrimidin-7-ylamino)-1-(6-(trifluoromethyl)pyridin-3-yl) propan-2-ol] | 258 nM |
| Cc1cc(NC(c2ccc(C(F)(F)F)nc2)C(C)(C)O)n2ncnc2n1 (single isomer, unassigned) [Example 226, (S)- or (R)-2-Methyl-1-(5-methyl-[1,2,4]triazolo [1,5-a]pyrimidin-7-ylamino)-1-(6-(trifluoromethyl)pyridin-3-yl) propan-2-ol] | 356 nM |
| CC(C)(O)C(Nc1cc(C(F)F)nc2ncnn12)c1ccc(C(F)(F)F)c(F)c1 (single isomer, unassigned) [Example 227, (R)- or (S)-1-(5-(Difluoromethyl)-[1,2,4]triazolo [1,5-a]pyrimidin-7-ylamino)-1-(3-fluoro-4-(trifluoromethyl)phenyl)-2-methylpropan-2-ol] | 7.6 nM |
| CC(C)(O)C(Nc1cc(C(F)F)nc2ncnn12)c1ccc(C(F)(F)F)c(F)c1 (single isomer, unassigned) [Example 228, (S)- or (R)-1-(5-(Difluoromethyl)-[1,2,4]triazolo [1,5-a]pyrimidin-7-ylamino)-1-(3-fluoro-4-(trifluoromethyl)phenyl)-2-methylpropan-2-ol] | > 2960 nM |
| Cc1cc(NC(c2ccc(OC(F)(F)F)c(F)c2)C2COC2)n2ncnc2n1 (single isomer, unassigned) [Example 229, (R)- or (S)-N-((3-Fluoro-4-(trifluoromethoxy)phenyl)(oxetan-3-yl)methyl)-5-methyl-[1,2,4]triazolo [1,5-a]pyrimidin-7-amine] | 448 nM |
| Cc1cc(NC(c2ccc(OC(F)(F)F)c(F)c2)C2COC2)n2ncnc2n1 (single isomer, unassigned) [Example 230, (S)- or (R)-N-((3-Fluoro-4-(trifluoromethoxy)phenyl)(oxetan-3-yl)methyl)-5-methyl-[1,2,4]triazolo [1,5-a]pyrimidin-7-amine] | 167 nM |
| Cc1cc(NC(c2ccc(OC(F)(F)F)c(F)c2)C(C)(C)CO)n2ncnc2n1 (single isomer, unassigned) [Example 232, (S or S)-3-(3-fluoro-4-(trifluoromethoxy)phenyl)-2,2-dimethyl-3-(5-methyl-[1,2,4]triazolo[1,5-a]pyrimidin-7-ylamino)propan-1-ol] | > 2960 nM |
| COc1cc(N[C@H](c2ccc(C(F)(F)F)c(F)c2)C(C)(C)O)n2ncnc2n1 (single isomer, unassigned) [Example 236] | 210 nM |
| COc1cc(N[C@@H](c2ccc(C(F)(F)F)c(F)c2)C(C)(C)O)n2ncnc2n1 (single isomer, unassigned) [Example 237] | 1690 nM |
| CN(C)c1cc(N[C@H](c2ccc(C(F)(F)F)c(F)c2)C(C)(C)O)n2ncnc2n1 (single isomer, unassigned) [Example 243] | > 2960 nM |
